The values below come from US9113629B2, “4-amino-6-(4-substituted-phenyl)-picolinates and 6-amino-2-(4-substituted-phenyl)-pyrimidine-4-carboxylates and their use as herbicides” (DOW AGROSCIENCES LLC, priority 2013, dated 2015).

Common to all, as to experiment: Post-emergent Test III, herbicidal activity in wheat and barley
Format in all cases: in vivo

Assay [1] deals with HORSS: barley, including spring and winter (Hordeum vulgare). Conditions: Post-emergent Test III; for GR20 HORSS: 21 days after application, dose for 20% growth reduction, probit analysis. An outline of the steps: (§1)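 Plants at the second to third true-leaf stage, grown in a greenhouse at about 18/17 °C with a 14 h photoperiod, were sprayed post-emergence at 187 L/ha with the high rate and ½× to 1/16× serial dilutions in an acetone/DMSO/crop-oil/surfactant carrier. Injury was rated visually at 21 d on a 0–100% scale, and GR20–GR90 were derived by probit analysis.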

Assay [2] has as its system KCHSC: kochia (Kochia scoparia). As to conditions: Post-emergent Test III; for pest or weed control at 35 g/ha / pest or weed control at 70 g/ha: Bassia scoparia, post-emergence, 504 h, read-out: Visual Growth Reduction (%) 21 Days After Application, KCHSC; for pest or weed control at 35 g/ha: 35 g ai/ha; for pest or weed control at 70 g/ha: 70 g ai/ha; for GR50 KCHSC: dose for 50% growth reduction; for GR80 KCHSC: dose for 80% growth reduction. In outline:
as §1

Assay [3] has as its system MATSS: scented mayweed (Matricaria chamomilla), pineappleweed (Matricaria matricarioides). As to conditions: Post-emergent Test III; for pest or weed control at 35 g/ha / pest or weed control at 70 g/ha: Matricaria chamomilla, post-emergence, 504 h, read-out: Visual Growth Reduction (%) 21 Days After Application, MATSS; for pest or weed control at 35 g/ha: 35 g ai/ha; for pest or weed control at 70 g/ha: 70 g ai/ha; for GR50 MATSS: dose for 50% growth reduction; for GR80 MATSS: dose for 80% growth reduction. In outline:
as §1

Assay [4] deals with SASKR: Russian thistle (Salsola iberica). As to conditions: Post-emergent Test III; for GR50 SASKR: dose for 50% growth reduction; for GR80 SASKR: dose for 80% growth reduction. In outline:
as §1

Assay [5] has as its system TRZSS: wheat, including spring and winter (Triticum aestivum). Conditions: Post-emergent Test III; for GR20 TRZSS: 21 days after application, dose for 20% growth reduction, probit analysis. An outline of the steps:
as §1

The test system of assay [6] is VIOSS: wild pansy (Viola tricolor), field violet (Viola arvensis). As to conditions: Post-emergent Test III; for GR50 VIOSS: dose for 50% growth reduction; for GR80 VIOSS: dose for 80% growth reduction. In outline:
as §1

The mark [7] stands for this setting: 21 days after application, dose for 20% growth reduction, probit analysis.
The mark [8] stands for this setting: 21 days after application, probit analysis.

A value given as a limit tells only on which side of the number the result lay.

As for `COC(=O)c1nc(-c2ccc(C(F)(F)F)c(F)c2F)c(F)c(N)c1Cl` [Compound 149], the “Visual Growth Reduction (%) 21 Days After Application, HORSS” value in assay [1] (35 g ai/ha) is reported as “D (60-74)”. In assay [1] (70 g ai/ha), the “Visual Growth Reduction (%) 21 Days After Application, HORSS” value is given as “C (75-84)”. For the same compound, the “GR20 HORSS” value in assay [1] came out at 21 g ai/ha. Further, in assay [2], the pest or weed control at 35 g/ha lay within 30 to 44% and the pest or weed control at 70 g/ha lay in the range of 60 to 74%. In assay [2] (setting [7]), the “GR20, KCHSC” value is reported as 18 g ai/ha. Besides, in assay [2] (setting [8]), the “GR50 KCHSC” value worked out at 56 g ai/ha and the “GR80 KCHSC” value is above 140 g ai/ha. Besides, in assay [3], the pest or weed control at 35 g/ha lay in the range of 45 to 59% and the pest or weed control at 70 g/ha lay within 60 to 74%. Besides, in assay [3] (setting [7]), the “GR20, MATSS” value is listed as 9 g ai/ha. Further, in assay [3] (setting [8]), the “GR50 MATSS” value is listed as 38 g ai/ha and the “GR80 MATSS” value is on record as above 140 g ai/ha. Also, the “Visual Growth Reduction (%) 21 Days After Application, SASKR” value in assay [4] (35 g ai/ha) was “D (60-74)”. The “Visual Growth Reduction (%) 21 Days After Application, SASKR” value in assay [4] (70 g ai/ha) was “D (60-74)”. Besides, the “GR20, SASKR” value in assay [4] (setting [7]) turned out to be 6 g ai/ha. In assay [4] (setting [8]), the “GR50 SASKR” value is reported as 24 g ai/ha and the “GR80 SASKR” value is 100 g ai/ha. Further, the “Visual Growth Reduction (%) 21 Days After Application, TRZSS” value in assay [5] (35 g ai/ha) is “E (45-59)”. Besides, the “Visual Growth Reduction (%) 21 Days After Application, TRZSS” value in assay [5] (70 g ai/ha) is “C (75-84)”. In addition, the “GR20 TRZSS” value in assay [5] came out at 20 g ai/ha. Besides, the “Visual Growth Reduction (%) 21 Days After Application, VIOSS” value in assay [6] (35 g ai/ha) is on record as “F (30-44)”. Besides, the “Visual Growth Reduction (%) 21 Days After Application, VIOSS” value in assay [6] (70 g ai/ha) is “D (60-74)”. Moreover, in assay [6] (setting [7]), the “GR20, VIOSS” value is on record as 11 g ai/ha. Further, in assay [6] (setting [8]), the “GR50 VIOSS” value is recorded as 44 g ai/ha and the “GR80 VIOSS” value is listed as above 140 g ai/ha.
For `COC(=O)c1nc(-c2ccc(C(F)(F)F)c(F)c2)c(F)c(N)c1Cl` [Compound 165], the “Visual Growth Reduction (%) 21 Days After Application, HORSS” value in assay [1] (35 g ai/ha) is recorded as “C (75-84)”. The “Visual Growth Reduction (%) 21 Days After Application, HORSS” value in assay [1] (70 g ai/ha) was “B (85-94)”. The “GR20 HORSS” value in assay [1] was found to be 9 g ai/ha. Moreover, in assay [2], the pest or weed control at 35 g/ha was 85 to 94% and the pest or weed control at 70 g/ha was in the range of 85 to 94%. Moreover, in assay [2] (setting [8]), the “GR50 KCHSC” value was determined as 9 g ai/ha and the “GR80 KCHSC” value worked out at 30 g ai/ha. Moreover, in assay [3], the pest or weed control at 35 g/ha is 0 to 29% and the pest or weed control at 70 g/ha fell in the range of 45 to 59%. In assay [3] (setting [8]), the “GR50 MATSS” value was 81 g ai/ha and the “GR80 MATSS” value is above 140 g ai/ha. For the same compound, in assay [4] (35 g ai/ha), the “Visual Growth Reduction (%) 21 Days After Application, SASKR” value is listed as “C (75-84)”. In addition, the “Visual Growth Reduction (%) 21 Days After Application, SASKR” value in assay [4] (70 g ai/ha) is listed as “B (85-94)”. Also, in assay [4] (setting [8]), the “GR50 SASKR” value was found to be 4 g ai/ha and the “GR80 SASKR” value was 46 g ai/ha. Besides, the “Visual Growth Reduction (%) 21 Days After Application, TRZSS” value in assay [5] (35 g ai/ha) was “D (60-74)”. In assay [5] (70 g ai/ha), the “Visual Growth Reduction (%) 21 Days After Application, TRZSS” value is reported as “C (75-84)”. Further, the “GR20 TRZSS” value in assay [5] is 8 g ai/ha. Besides, in assay [6] (35 g ai/ha), the “Visual Growth Reduction (%) 21 Days After Application, VIOSS” value was “F (30-44)”. For the same compound, the “Visual Growth Reduction (%) 21 Days After Application, VIOSS” value in assay [6] (70 g ai/ha) is on record as “D (60-74)”. In assay [6] (setting [8]), the “GR50 VIOSS” value is 55 g ai/ha and the “GR80 VIOSS” value is listed as above 140 g ai/ha.
